Experimental data as given in ChEMBL document CHEMBL1201862, “PubChem BioAssay data set” (2004).
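Grown in 96-well plates, cells were treated for 48 hours with each compound at five concentrations. Insufficient inhibition: endpoint recorded as highest concentration tested. Abbreviation: GI50, concentration required for 50% inhibition of growth.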 Active and inactive are the calls of the source. No stated cut-off is given here; in the data, active = GI50 up to about 1.1 µM and inactive = higher.

Tests used:
Experiment in all cases: DTP human tumour cell line panel, 48 h
U-251 = test system: U-251
OVCAR-5 = test system: OVCAR-5
CCRF-CEM = test system: CCRF-CEM
RXF 393 = test system: RXF 393
NCI-H522 = test system: NCI-H522
NCI-H460 = test system: NCI-H460
IGROV-1 = test system: IGROV-1
A498 = test system: A498
HT-29 = test system: HT-29
SF-268 = test system: SF-268
HL-60 = test system: HL-60
M19-MEL = test system: M19-MEL
KM12 = test system: KM12
SNB-78 = test system: SNB-78
MOLT-4 = test system: MOLT-4
SR = test system: SR
EKVX = test system: EKVX
TK-10 = test system: TK-10
A549 = test system: A549
DMS-273 = test system: DMS-273
M14 = test system: M14
K562 = test system: K562
UACC-62 = test system: UACC-62
NCI-H23 = test system: NCI-H23
NCI-H226 = test system: NCI-H226
SNB-19 = test system: SNB-19
SK-MEL-28 = test system: SK-MEL-28
HOP-62 = test system: HOP-62
UO-31 = test system: UO-31
SK-OV-3 = test system: SK-OV-3
HOP-92 = test system: HOP-92
786-0 = test system: 786-0
SNB-75 = test system: SNB-75
SF-539 = test system: SF-539
HCC 2998 = test system: HCC 2998
OVCAR-3 = test system: OVCAR-3
SW-620 = test system: SW-620
RPMI-8226 = test system: RPMI-8226
SN12C = test system: SN12C
Malme-3M = test system: Malme-3M
DMS-114 = test system: DMS-114
SF-295 = test system: SF-295
HOP-18 = test system: HOP-18
OVCAR-8 = test system: OVCAR-8
LXFL 529 = test system: LXFL 529
SK-MEL-5 = test system: SK-MEL-5
DLD-1 = test system: DLD-1
LOX IMVI = test system: LOX IMVI
HCT-15 = test system: HCT-15
ACHN = test system: ACHN
OVCAR-4 = test system: OVCAR-4

`N#CC1Sc2ccccc2-n2cccc21` (centres undefined) was tested, and the GI50 (U-251) was > 100 µM (inactive), the GI50 (OVCAR-5) was 24.3 µM (inactive) and the GI50 (CCRF-CEM) was 70.8 µM (inactive). For the same compound, the GI50 (RXF 393) was 23.2 µM (inactive), the GI50 (NCI-H522) was 36.1 µM (inactive) and the GI50 (NCI-H460) was > 100 µM (inactive). The GI50 (IGROV-1) was > 100 µM (inactive), the GI50 (A498) was 67.6 µM (inactive) and the GI50 (HT-29) was > 100 µM (inactive). For the same compound, the GI50 (SF-268) was 25.1 µM (inactive), the GI50 (HL-60) was 22.8 µM (inactive) and the GI50 (M19-MEL) was > 100 µM (inactive). For the same compound, the GI50 (KM12) was 85.7 µM (inactive), the GI50 (SNB-78) was 34.7 µM (inactive) and the GI50 (MOLT-4) was 58.9 µM (inactive). For the same compound, the GI50 (SR) was 37.6 µM (inactive), the GI50 (EKVX) was 61.2 µM (inactive) and the GI50 (TK-10) was 80 µM (inactive). The GI50 (A549) was 45 µM (inactive), the GI50 (DMS-273) was 44 µM (inactive) and the GI50 (M14) was > 100 µM (inactive). For the same compound, the GI50 (K562) was 26.7 µM (inactive), the GI50 (UACC-62) was 30.3 µM (inactive) and the GI50 (NCI-H23) was 63.7 µM (inactive). The GI50 (NCI-H226) was 4.98 µM (inactive), the GI50 (SNB-19) was > 100 µM (inactive) and the GI50 (SK-MEL-28) was > 100 µM (inactive). The GI50 (HOP-62) was > 100 µM (inactive), the GI50 (UO-31) was 25.4 µM (inactive) and the GI50 (SK-OV-3) was 67.3 µM (inactive). For the same compound, the GI50 (HOP-92) was 42.6 µM (inactive).
`C=CC[P@]1(=O)O[C@H](c2ccccc2)[C@H](C)N1C` was tested, and the GI50 (786-0) was > 100 µM (inactive), the GI50 (SNB-75) was > 100 µM (inactive) and the GI50 (U-251) was > 100 µM (inactive). The GI50 (SF-539) was > 100 µM (inactive), the GI50 (HCC 2998) was > 100 µM (inactive) and the GI50 (OVCAR-5) was > 100 µM (inactive). For the same compound, the GI50 (OVCAR-3) was > 100 µM (inactive), the GI50 (CCRF-CEM) was > 100 µM (inactive) and the GI50 (RXF 393) was > 100 µM (inactive). For the same compound, the GI50 (SW-620) was > 100 µM (inactive), the GI50 (NCI-H460) was > 100 µM (inactive) and the GI50 (RPMI-8226) was > 100 µM (inactive). For the same compound, the GI50 (IGROV-1) was > 100 µM (inactive), the GI50 (A498) was > 100 µM (inactive) and the GI50 (HT-29) was > 100 µM (inactive). For the same compound, the GI50 (SN12C) was > 100 µM (inactive), the GI50 (Malme-3M) was > 100 µM (inactive) and the GI50 (SF-268) was > 100 µM (inactive). The GI50 (HL-60) was > 100 µM (inactive), the GI50 (M19-MEL) was > 100 µM (inactive) and the GI50 (DMS-114) was > 100 µM (inactive). For the same compound, the GI50 (SF-295) was > 100 µM (inactive), the GI50 (KM12) was > 100 µM (inactive) and the GI50 (SNB-78) was > 100 µM (inactive). The GI50 (MOLT-4) was > 100 µM (inactive), the GI50 (SR) was > 100 µM (inactive) and the GI50 (EKVX) was > 100 µM (inactive). For the same compound, the GI50 (TK-10) was > 100 µM (inactive), the GI50 (A549) was > 100 µM (inactive) and the GI50 (DMS-273) was > 100 µM (inactive). The GI50 (HOP-18) was 79.1 µM (inactive), the GI50 (OVCAR-8) was > 100 µM (inactive) and the GI50 (LXFL 529) was > 100 µM (inactive). The GI50 (SK-MEL-5) was > 100 µM (inactive), the GI50 (DLD-1) was > 100 µM (inactive) and the GI50 (LOX IMVI) was > 100 µM (inactive). For the same compound, the GI50 (M14) was > 100 µM (inactive), the GI50 (K562) was > 100 µM (inactive) and the GI50 (UACC-62) was > 100 µM (inactive). For the same compound, the GI50 (NCI-H23) was > 100 µM (inactive), the GI50 (NCI-H226) was > 100 µM (inactive) and the GI50 (HCT-15) was greater than 100 µM. For the same compound, the GI50 (SNB-19) was > 100 µM (inactive), the GI50 (SK-MEL-28) was > 100 µM (inactive) and the GI50 (UO-31) was > 100 µM (inactive). The GI50 (SK-OV-3) was > 100 µM (inactive), the GI50 (ACHN) was > 100 µM (inactive) and the GI50 (OVCAR-4) was > 100 µM (inactive).
